For this test, the target named is T1, PDE4B (human recombinant) (Homo sapiens, UniProt Q07343).
T1 construct: made in house
T1 sequence (Q07343 1-564 isoform Q07343-2): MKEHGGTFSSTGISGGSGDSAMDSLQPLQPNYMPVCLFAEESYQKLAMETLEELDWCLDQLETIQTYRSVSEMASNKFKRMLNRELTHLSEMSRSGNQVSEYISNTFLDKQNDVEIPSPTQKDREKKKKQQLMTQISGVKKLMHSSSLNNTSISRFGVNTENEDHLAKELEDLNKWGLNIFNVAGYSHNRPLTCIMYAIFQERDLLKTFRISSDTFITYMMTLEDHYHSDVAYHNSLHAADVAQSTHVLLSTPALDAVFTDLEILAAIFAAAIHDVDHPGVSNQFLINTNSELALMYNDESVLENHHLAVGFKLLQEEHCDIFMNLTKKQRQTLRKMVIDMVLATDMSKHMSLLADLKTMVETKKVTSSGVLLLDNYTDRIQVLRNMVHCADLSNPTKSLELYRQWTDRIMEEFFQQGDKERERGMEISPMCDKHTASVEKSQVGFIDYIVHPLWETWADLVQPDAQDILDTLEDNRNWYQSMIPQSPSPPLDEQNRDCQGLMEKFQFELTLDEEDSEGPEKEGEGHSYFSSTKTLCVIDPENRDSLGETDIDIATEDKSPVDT
The test is described as follows: Inhibition of PDE4B activity: radioactive SPA or IMAP Fluorescence Polarisation (FP) assay. The note with it: PDE4B inhibitory activity, one reading or average of ca. 2-6 readings, read-out: PDE4B pIC50 (± about 0.5) (converted). It is filed as biochemical. The gist of the method: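 SPA: yeast-expressed human recombinant PDE4B was preincubated with compound for 10–30 min at ambient temperature in Tris pH 7.5 with MgCl2, EGTA and BSA, then run 1 h with ~10 nM [3H]cAMP at ≤20% hydrolysis; 10 concentrations (1.5 nM–30 μM) gave pIC50. IMAP FP: Tris pH 7.2 with ~40 nM fluorescein-cAMP, under linear enzyme conditions.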
For orientation: Fluorescence polarisation rises when a labelled molecule tumbles more slowly, as on binding a larger partner.
Consider `CCn1ncc2c(NC3CCOCC3)c(C(=O)Nc3ccc(F)cc3)cnc21` [Example 22, 1-Ethyl-N-(4-fluorophenyl)-4-(tetrahydro-2H-pyran-4-ylamino)-1H-pryazolo[3,4-b]pyridine-5-carboxamide], for which the IC50 was 12.6 nM.
On to `CCNC(=O)c1cnc2c(cnn2CC)c1NC1CCOCC1` [Example 83, 1-Ethyl-N-ethyl-4-(tetrahydro-2H-pyran-4-ylamino)-1H-pyrazolo[3,4-b]pyridine-5-carboxamide], for which the IC50 is 12.6 to 100 nM.
Regarding `CCn1ncc2c(NC3CCOCC3)c(C(=O)NCc3ccc(C(F)(F)F)cc3)cnc21` [Example 155, 1-Ethyl-4-(tetrahydro-2H-pyran-4-ylamino)-N-[4-(trifluoromethyl)benzyl]-1H-pyrazolo[3,4-b]pyridine-5-carboxamide], the IC50 was 0.1 to 6.31 nM.

These data come from patent US20060089375A1, “Pyrazolo[3,4-b] pyridine compounds, and their use as phosphodiesterase inhibitors” (priority 2002, published 2006).
